The values that follow come from PubChem BioAssay (NCI).

Holding throughout (test): NCI anticancer screen, dose series, 48 h
The test system of experiment [1] is NCI-H522 lung.
Experiment [2] has as its system OVCAR-3 ovarian.
Experiment [3] relates to NCI-H226 lung.
Experiment [4] deals with HOP-92 NSCLC.
Experiment [5] concerns M14 melanoma.
In experiment [6] the test system is SF-268 CNS.
The test system of experiment [7] is CCRF-CEM leukemia.
For experiment [8], the system named is SNB-75 CNS.
The test system of experiment [9] is RPMI-8226 leukemia.
Experiment [10] deals with HOP-62 NSCLC.
Experiment [11] concerns HCT-116 colon.

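A five-concentration, 48-hour dose response in 96-well plates underlies each endpoint, interpolated linearly between surrounding concentrations. TGI: total growth inhibition.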

Turning to `CN1CCCC(OC(=O)c2cc3cc(CCl)ccc3oc2=O)C1` (centres undefined), the TGI in experiment [1] came out at 34.7 µM; in [2] it was 37.8 µM; in experiment [3] it was 58.1 µM; in experiment [4], 30.5 µM; in experiment [5], 39.3 µM; in experiment [6], 47 µM. Besides, the TGI in experiment [7] was determined as 55 µM; in experiment [8] it was 52.8 µM; in experiment [9], 89.1 µM; in [10] it was 67.7 µM; in [11], 48.7 µM.

`O=P1(N(CCCl)CCCl)NCCCO1` (centres undefined): the TGI in experiment [1], in experiment [2], in experiment [3], in experiment [4], in [5] and in [6] was > 250 µM in each case. Moreover, the TGI in experiment [7] is 213 µM; in experiment [8], > 250 µM; in [9] it was > 250 µM; in [10], > 250 µM; in experiment [11], > 250 µM.

Take `CCOC(=O)c1c(SCCN2CCCCC2)n(-c2ccccc2)c(=S)n(-c2ccccc2)c1=O`: the TGI in [1] is 35.4 µM; in [2], 24.7 µM; in experiment [3], 16.9 µM; in experiment [4] it was 30.8 µM; in experiment [5] it was 81.6 µM; in experiment [6], > 75.4 µM. Further, the TGI in experiment [7] was 11.8 µM; in experiment [8], 37.1 µM; in experiment [9] it was > 21.9 µM; in experiment [10] it was 40.8 µM; in experiment [11], 4.89 µM.

For `O=C1/C(=C(/Br)I)c2ccccc2-c2ccccc21`, the TGI in experiment [1] is 5.27 µM; in experiment [2] it was 24.6 µM; in experiment [3] it was 35.4 µM; in experiment [4], 8.07 µM; in experiment [5], 27.6 µM; in [6], 31.1 µM. For the same molecule, the TGI was 5.93 µM in [7]; 29.7 µM in experiment [8]; 8.37 µM in experiment [9]; 36.6 µM in [10]; 25.2 µM in [11].

Regarding `CC(=O)NC1C(OCc2ccccc2)OC(CO)C(O)C1OCC(=O)N[C@@H](C)C(=O)N[C@H](CCC(=O)NCCCCNc1c2ccccc2nc2cccc([N+](=O)[O-])c12)C(N)=O` (some centres undefined), the TGI was 0.594 µM in experiment [1]; > 30.4 µM in [2]; 7.49 µM in experiment [3]; 4.45 µM in [4]; > 22.2 µM in experiment [5]; 14.5 µM in experiment [6]. Further, the TGI in experiment [7] was > 100 µM; in experiment [8], 4.69 µM; in experiment [9], 8.88 µM; in experiment [10] it was > 52.2 µM; in experiment [11] it was 10 µM.

Regarding `O=c1[nH]nc(N/N=C\c2ccc(Cl)cc2)c2ccccc12`, the TGI in [1] is 48 µM; in experiment [2] it was 30.2 µM; in [3] it was 57.4 µM; in experiment [4] it was 34.5 µM; in experiment [5], 35.4 µM; in experiment [6], 55.5 µM. Also, the TGI in experiment [7] was > 100 µM; in experiment [8] it was 47.6 µM; in experiment [9], > 100 µM; in experiment [11] it was 53.2 µM.

`CCC1(O)CC(O)c2c(O)c3c(c(O)c2C1C(=O)OC)C(=O)c1cccc(O)c1C3=O` (centres undefined): the TGI in [1] came to 4.96 µM; in experiment [2], 8.63 µM; in experiment [3], 18.1 µM; in [4] it was 32.1 µM; in experiment [5], 14.1 µM; in experiment [6] it was 16.2 µM. The TGI was 9.71 µM in experiment [7]; 18.5 µM in experiment [8]; > 23.1 µM in experiment [9]; 16.6 µM in [10]; 11.7 µM in experiment [11].

On to `Cc1cc2nc3c(N)nn(CCN(C)C)c3nc2cc1C`, for which the TGI was > 100 µM in experiment [1]; > 100 µM in experiment [2]; 79.4 µM in experiment [3]; > 100 µM in [4]; > 100 µM in experiment [5]; > 100 µM in experiment [6]. In addition, the TGI is > 100 µM in experiment [7]; 97.9 µM in [8]; > 100 µM in experiment [9]; > 100 µM in experiment [10]; > 100 µM in experiment [11].

On to `O=c1cnc2cc3ccccc3cc2[nH]1`, for which the TGI in [1], in experiment [2], in experiment [3], in experiment [4], in [5] and in experiment [6] was > 100 µM throughout. Also, the TGI in experiment [7], in [8], in [9], in experiment [10] and in experiment [11] was > 100 µM in each case.

Regarding `CCOc1ccccc1N=NC1C(=O)N(C(=O)CC(=O)Nc2ccccc2OC)N=C1C` (centres undefined), the TGI in experiment [1] is > 100 µM; in experiment [2] it was > 100 µM; in experiment [3], > 100 µM; in experiment [4], 56.8 µM; in experiment [5], > 100 µM; in experiment [6], 68.8 µM. The TGI in experiment [7] was > 100 µM; in experiment [8], 42.1 µM; in [9], > 100 µM; in experiment [10], 39.4 µM; in [11], > 100 µM.

Regarding `COc1ccc(OC)c(-c2cn3c(n2)sc2ccccc23)c1`, the TGI in experiment [1], in experiment [2], in experiment [3], in experiment [4], in experiment [6] and in experiment [7] was > 100 µM each time. For the same molecule, the TGI in experiment [8], in [9], in [10] and in experiment [11] was > 100 µM throughout.

As for `COC(CC1(CCNc2ccccc2)C(=O)N(COCC[Si](C)(C)C)c2ccccc21)OC` (centres undefined), the TGI was found to be 24.2 µM in experiment [1]; 31.6 µM in [2]; 21.4 µM in [3]; 42.2 µM in experiment [4]; 6.92 µM in experiment [5]; 26.3 µM in experiment [6]. Besides, the TGI in [7] is > 31.6 µM; in [8], 14.3 µM; in experiment [9] it was > 100 µM; in experiment [10] it was 28 µM; in experiment [11] it was 32.5 µM.

As for `COc1ccccc1NC(=O)CSC(N)=O`, the TGI in experiment [1], in experiment [2], in experiment [3], in [4], in experiment [5] and in experiment [6] was > 100 µM each time. Further, the TGI was > 100 µM in [7]; 84.3 µM in experiment [8]; > 100 µM in experiment [9]; 80.2 µM in experiment [10]; 36.6 µM in experiment [11].

As to `CCC(=O)Nc1ccc(N2C(=O)/C(=C/c3ccc(O)c(OC)c3)N=C2c2ccccc2)cc1`, the TGI in experiment [1] was > 100 µM; in [2] it was > 100 µM; in experiment [3], 50.5 µM; in [4], > 100 µM; in [5], > 100 µM; in [6] it was > 100 µM. The TGI in experiment [7], in experiment [8], in experiment [9], in experiment [10] and in [11] was > 100 µM each time.

For `Cc1sc2nc3n(sc4nc5sc(C)c(C)c5c(=O)n43)c(=O)c2c1C`, the TGI in experiment [1] was 32 µM; in experiment [2], > 100 µM; in experiment [3], > 100 µM; in experiment [4], > 100 µM; in [5], > 100 µM; in [6], > 100 µM. In addition, the TGI in [7] is 45.1 µM; in [8], 43.4 µM; in [9], > 100 µM; in experiment [11], > 100 µM.

As for `CCCCCCCCCCC[N+]1(Cc2ccccc2)CC2CCN(Cc3ccccc3)CC2C1` (centres undefined), the TGI in experiment [1] was 1.29 µM; in experiment [2], 1.28 µM; in experiment [3], 1.98 µM; in experiment [4], 1.62 µM; in experiment [5], 1.48 µM; in [6], 2.13 µM. Further, the TGI in experiment [7] amounted to 1.14 µM; in [8], 2.45 µM; in experiment [9], 0.378 µM; in experiment [10] it was 2.14 µM; in [11] it was 1.45 µM.

In the case of `CC1Cc2c(cc(N)nc2Br)NC1=O` (centres undefined), the TGI in experiment [1], in experiment [2], in experiment [3], in experiment [4], in experiment [5] and in [6] was > 100 µM each time. For the same molecule, the TGI in [7], in experiment [8], in [9], in experiment [10] and in [11] was > 100 µM throughout.

Consider `Cc1cc(C)c(C#N)c(SC(=S)NC(=O)c2ccccc2)n1`, for which the TGI in experiment [1], in experiment [3], in experiment [4], in experiment [5], in experiment [6] and in [7] was > 100 µM in each case. Besides, the TGI in experiment [8], in [9], in experiment [10] and in experiment [11] was > 100 µM each time.

Take `COC(=O)NC(Nc1ccc(C)cc1)(C(F)(F)F)C(F)(F)F`: the TGI in [1], in experiment [2], in experiment [3], in [4], in experiment [5] and in [6] was > 100 µM throughout. The TGI in [7], in experiment [8], in [9], in [10] and in experiment [11] was > 100 µM each time.

Turning to `Cc1cn([C@@H]2C[C@](C)(CO)N(C)O2)c(=O)[nH]c1=O`, the TGI in [1], in experiment [3], in experiment [4], in experiment [5], in experiment [6] and in [7] was > 100 µM each time. Besides, the TGI in [8], in [9], in experiment [10] and in [11] was > 100 µM throughout.

`O=C(c1ccccc1)c1ccc2nc(-c3c(Cl)c(Cl)c(Cl)c(Cl)c3C(=O)Nc3ccco3)[nH]c2c1`: the TGI in experiment [1] was 81.4 µM; in [2], > 100 µM; in [3], > 100 µM; in experiment [4], > 100 µM; in experiment [5], > 100 µM; in experiment [6], > 100 µM. Also, the TGI in experiment [7], in [8], in experiment [9], in [10] and in experiment [11] was > 100 µM in each case.

On to `O=C1Sc2cc3ccccc3cc2C(=O)Sc2cc3ccccc3cc21`, for which the TGI is 41.5 µM in experiment [1]; > 63.5 µM in experiment [2]; > 100 µM in experiment [3]; > 87.6 µM in [4]; > 63.9 µM in [5]; > 83.7 µM in experiment [6]. The TGI in experiment [7] is 12.5 µM; in experiment [8], > 100 µM; in experiment [9] it was > 24.6 µM; in [10], > 85.2 µM; in experiment [11], 38.5 µM.

As to `CCOC(=O)c1nc2ccccc2nc1Nc1ccc(F)cc1`, the TGI in [1] was > 100 µM; in [2], > 100 µM; in experiment [3], > 63.7 µM; in [4], 43.9 µM; in experiment [5], > 100 µM; in experiment [6] it was 30 µM. Also, the TGI in experiment [7] was > 100 µM; in experiment [8] it was 18.5 µM; in [9], > 100 µM; in experiment [10], 38.2 µM; in [11], > 69.3 µM.

As for `Cc1cn(C2CC(SCCO)C(CO)O2)c(=O)[nH]c1=O` (centres undefined), the TGI in experiment [1], in experiment [2], in experiment [3], in experiment [4], in experiment [5] and in [6] was > 100 µM each time. Besides, the TGI in experiment [7], in experiment [8], in experiment [9], in experiment [10] and in experiment [11] was > 100 µM throughout.

`Cn1c(=O)[nH]n(-c2ccc3ccccc3c2)c1=O`: the TGI in experiment [1], in [2], in experiment [3], in experiment [4], in experiment [5] and in experiment [6] was > 100 µM in each case. The TGI in experiment [7], in [8], in experiment [9] and in [11] was > 100 µM throughout.
